In the assay the test system is L1210 leukemia ip in BDF1 mice, survival T/C. As to the kind of experiment: NCI In Vivo Anticancer Drug Screen. Data for tumor model L1210 Leukemia (intraperitoneal) in B6D2F1 (BDF1) mice. The settings on record: endpoint: mean survival time, higher = longer survival. The method in brief: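 Antitumor effect is assessed in tumor-bearing animals. Survival in the compound arm is compared with a vehicle-dosed control arm and expressed as their quotient.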

The mark [1] stands for this setting: dose: 100.0 mg/kg/injection, schedule: Q04DX002 (ip), vehicle: saline with Tween-80.
Setting [2] is: dose: 200.0 mg/kg/injection, schedule: Q04DX002 (ip), vehicle: saline with Tween-80.
[3] abbreviates: dose: 100.0 mg/kg/injection, schedule: Q04DX003 (ip), vehicle: saline with Tween-80.
Where [4] appears, read: dose: 200.0 mg/kg/injection, schedule: Q04DX003 (ip), vehicle: saline with Tween-80.
Where [5] appears, read: dose: 50.0 mg/kg/injection, schedule: Q01DX009 (ip), vehicle: saline.
[6] abbreviates: dose: 200.0 mg/kg/injection, schedule: Q01DX001 (ip), vehicle: saline.
[7] abbreviates: dose: 400.0 mg/kg/injection, schedule: Q01DX001 (ip), vehicle: saline.
Setting [8] is: dose: 100.0 mg/kg/injection, schedule: Q01DX001 (ip), vehicle: saline.
Where [9] appears, read: dose: 50.0 mg/kg/injection, schedule: Q01DX009 (ip), vehicle: saline with Tween-80.
Where [10] appears, read: dose: 100.0 mg/kg/injection, schedule: Q01DX009 (ip), vehicle: saline with Tween-80.
[11] abbreviates: dose: 100.0 mg/kg/injection, schedule: Q04DX003 (ip), vehicle: Klucel (hydroxypropylcellulose) (HPC).
Where [12] appears, read: dose: 200.0 mg/kg/injection, schedule: Q04DX003 (ip), vehicle: Klucel (hydroxypropylcellulose) (HPC).
Setting [13] is: dose: 100.0 mg/kg/injection, schedule: Q04DX003 (ip), vehicle: saline.
Setting [14] is: dose: 200.0 mg/kg/injection, schedule: Q04DX003 (ip), vehicle: saline.
The mark [15] stands for this setting: dose: 200.0 mg/kg/injection, schedule: Q01DX009 (ip), vehicle: saline with Tween-80.

For 23 compounds, T/C results are on record in PubChem BioAssay AID248 (DTP/NCI, 2004).

Where “and” joins values, the source holds several entries; their conditions need not be identical. Equal entries are not always repeated. Toxic doses and inconclusive results are not listed.

For the compound `CC1CCCCN1Cc1ccccc1COC(=O)c1ccc([N+](=O)[O-])cc1Cl` (configuration not stated), the T/C under setting [1] was 94 % of control and the T/C under setting [2] is 97 % of control.
Turning to `CC(C)CC(NC(=O)C(F)(F)F)C(=O)O` (configuration not stated), the T/C is 97 % of control under setting [3] and 90 % of control under setting [4].
`CN(C)/N=N/c1ncn[nH]1`: the T/C (dose: 3.0 mg/kg/injection, schedule: Q01DX009 (ip), vehicle: saline) is 117 % of control; the T/C (dose: 6.0 mg/kg/injection, schedule: Q01DX009 (ip), vehicle: saline) is 114 % of control; the T/C (dose: 12.5 mg/kg/injection, schedule: Q01DX001 (ip), vehicle: saline) is 104 % of control; the T/C (dose: 12.5 mg/kg/injection, schedule: Q01DX009 (ip), vehicle: saline) is 151 % of control; the T/C (dose: 12.5 mg/kg/injection, schedule: Q04DX003 (ip), vehicle: saline) is 120 % of control; the T/C (dose: 22.0 mg/kg/injection, schedule: Q04DX003 (ip), vehicle: saline) was 123 % of control. In addition, the T/C is, setting by setting: (dose: 25.0 mg/kg/injection, schedule: Q01DX001 (ip), vehicle: saline) 108 % of control; (dose: 25.0 mg/kg/injection, schedule: Q01DX009 (ip), vehicle: saline) 203 % of control; (dose: 50.0 mg/kg/injection, schedule: Q01DX001 (ip), vehicle: saline) 116 % of control; under setting [5], 115 % of control; under setting [6], 155 % of control; under setting [7], 91 % of control.
For the compound `O=C(Nc1ccc(S(=O)(=O)NC2CCCCC2)cc1)OC1CCCCCCC1`, the T/C by setting is: under setting [8], 89 % of control; under setting [6], 94 % of control; under setting [7], 96 % of control.
Turning to `C1CNC(C2=NCCN2)=N1`, the T/C is, setting by setting: (dose: 100.0 mg/kg/injection, schedule: Q04DX002 (ip), vehicle: saline) 100 % of control; (dose: 200.0 mg/kg/injection, schedule: Q04DX002 (ip), vehicle: saline) 100 % of control; (dose: 400.0 mg/kg/injection, schedule: Q04DX002 (ip), vehicle: saline) 90 % of control.
With `N#CCC(=O)NCc1ccco1`, the T/C runs as follows: under setting [9], 106 % of control; under setting [10], 103 % of control; under setting [1], 104 % of control; under setting [2], 114 % of control.
In the case of `CC(=O)Nc1nccs1`, the T/C is, setting by setting: (dose: 50.0 mg/kg/injection, schedule: Q01DX009 (ip), vehicle: Klucel (hydroxypropylcellulose) (HPC)) 94 % of control; (dose: 100.0 mg/kg/injection, schedule: Q01DX009 (ip), vehicle: Klucel (hydroxypropylcellulose) (HPC)) 97 % of control; under setting [11], 97 % of control; under setting [12], 97 % of control.
In the case of `OC(CF)C(O)C(O)C(O)CF` (configuration not stated), the T/C was 95 % of control (dose: 75.0 mg/kg/injection, schedule: Q01DX009 (ip), vehicle: saline); 101 % of control under setting [8]; 93 % of control under setting [6]; 101 % of control (dose: 300.0 mg/kg/injection, schedule: Q01DX009 (ip), vehicle: saline); 93 % of control under setting [7].
In the case of `C/C=C/C(O)(C(=O)OCC)C(C)C` (configuration not stated), the T/C is 111 % of control under setting [8], 96 % of control under setting [6] and 100 % of control under setting [7].
In the case of `C1C2OC3CN1CC(O2)O3`, the T/C by setting is: under setting [5], 97 % of control; (dose: 100.0 mg/kg/injection, schedule: Q01DX009 (ip), vehicle: saline) 97 % of control; (dose: 200.0 mg/kg/injection, schedule: Q01DX009 (ip), vehicle: saline) 94 % of control.
Take `Cc1cc(Cc2ccccc2)n[nH]1`: the T/C reads like this: (dose: 100.0 mg/kg/injection, schedule: Q01DX001 (ip), vehicle: Klucel (hydroxypropylcellulose) (HPC)) 107 % of control; (dose: 200.0 mg/kg/injection, schedule: Q01DX001 (ip), vehicle: Klucel (hydroxypropylcellulose) (HPC)) 102 % of control; (dose: 400.0 mg/kg/injection, schedule: Q01DX001 (ip), vehicle: Klucel (hydroxypropylcellulose) (HPC)) 108 % of control.
For `CN1CCN(c2nc3nnnn3c3ccccc23)CC1`, the T/C reads like this: (dose: 50.0 mg/kg/injection, schedule: Q04DX003 (ip), vehicle: saline) 101 % of control; under setting [13], 104 % of control; under setting [14], 101 % of control.
For `O=C(Nc1cccc2ccccc12)OCCCBr`, the T/C was 90 % of control under setting [10] and 90 % of control under setting [15].
Consider `O=C(Nc1ccc(C(=O)O)c(O)c1)c1ccccc1`, for which the T/C (dose: 100.0 mg/kg/injection, schedule: Q01DX001 (ip), vehicle: acetone) was 96 % of control; the T/C (dose: 100.0 mg/kg/injection, schedule: Q04DX003 (ip), vehicle: saline sonified) is 98 % of control; the T/C (dose: 200.0 mg/kg/injection, schedule: Q01DX001 (ip), vehicle: acetone) is 97 % of control; the T/C (dose: 200.0 mg/kg/injection, schedule: Q04DX003 (ip), vehicle: saline sonified) is 101 % of control; the T/C (dose: 400.0 mg/kg/injection, schedule: Q01DX001 (ip), vehicle: acetone) is 97 % of control; the T/C (dose: 400.0 mg/kg/injection, schedule: Q04DX003 (ip), vehicle: saline sonified) was 101 % of control.
Turning to `CCC(C)C(NC(=O)C1CSC(C)(C)N1C=O)C(=O)OC` (configuration not stated), the T/C runs as follows: under setting [13], 106 % of control; under setting [14], 97 % of control; (dose: 400.0 mg/kg/injection, schedule: Q04DX003 (ip), vehicle: saline) 103 % of control.
Turning to `CCn1c2ccccc2c2cc(C=O)ccc21`, the T/C by setting is: (dose: 25.0 mg/kg/injection, schedule: Q01DX009 (ip), vehicle: other) 95 % of control; (dose: 50.0 mg/kg/injection, schedule: Q01DX009 (ip), vehicle: other) 98 % of control and 106 % of control; (dose: 100.0 mg/kg/injection, schedule: Q01DX009 (ip), vehicle: other) 88 % of control; (dose: 200.0 mg/kg/injection, schedule: Q01DX009 (ip), vehicle: other) 94 % of control.
With `CC1(O)C=Cc2ccccc21` (configuration not stated), the T/C reads like this: under setting [3], 100 % of control; under setting [4], 95 % of control.
`O=[N+]([O-])c1ccc(Oc2cccc(C(F)(F)F)c2)cc1`: the T/C was 95 % of control under setting [11]; 96 % of control under setting [12]; 96 % of control (dose: 400.0 mg/kg/injection, schedule: Q04DX003 (ip), vehicle: Klucel (hydroxypropylcellulose) (HPC)).
For the compound `CC(C1SCCCS1)C1SCCCS1`, the T/C by setting is: (dose: 37.5 mg/kg/injection, schedule: Q04DX002 (ip), vehicle: saline with Tween-80) 92 % of control; (dose: 75.0 mg/kg/injection, schedule: Q04DX002 (ip), vehicle: saline with Tween-80) 92 % of control; (dose: 150.0 mg/kg/injection, schedule: Q04DX002 (ip), vehicle: saline with Tween-80) 98 % of control; (dose: 300.0 mg/kg/injection, schedule: Q04DX002 (ip), vehicle: saline with Tween-80) 95 % of control.
Take `CN(C)/C(=C\C(=O)c1ccccc1)c1ccccc1`: the T/C runs as follows: under setting [3], 90 % of control; (dose: 400.0 mg/kg/injection, schedule: Q04DX003 (ip), vehicle: saline with Tween-80) 86 % of control.
In the case of `N#CC(Nc1ncccn1)c1ccccc1` (configuration not stated), the T/C was 104 % of control under setting [9], 93 % of control under setting [10] and 104 % of control under setting [15].
In the case of `[Si]c1ccccc1`, the T/C reads like this: under setting [1], 102 % of control; under setting [2], 93 % of control; (dose: 400.0 mg/kg/injection, schedule: Q04DX002 (ip), vehicle: saline with Tween-80) 98 % of control.
Regarding `COc1ccc(-n2c(=O)c(N=Nc3ccc(Cl)cc3)c(O)n(-c3ccc(C)cc3)c2=S)cc1`, the T/C is 92 % of control (dose: 37.5 mg/kg/injection, schedule: Q01DX001 (ip), vehicle: Klucel (hydroxypropylcellulose) (HPC)); 92 % of control (dose: 75.0 mg/kg/injection, schedule: Q01DX001 (ip), vehicle: Klucel (hydroxypropylcellulose) (HPC)); 91 % of control (dose: 150.0 mg/kg/injection, schedule: Q01DX001 (ip), vehicle: Klucel (hydroxypropylcellulose) (HPC)).
